The subject of this experiment is GBM8 cells (human glioblastoma neurosphere cell culture). In words: GBM8 viability assay (Cell Titer Glo luminescence, 3 days). Format: cell-based. To be noted: 72 h, 3 days incubation. Here is the method:
Example 283: GBM4 and GBM8 Viability Assay
Cell culture medium was prepared from a NSA proliferation kit (Neurocult) and NeuroCult supplements (Stemcell Tech Cat. #05751) and treated with 20 μL of 10 μg/mL rh EGF, 10 μL of 10 μg/mL rh bFGF and 10 μL of 0.2% Heparin. In this medium, human glioblastoma cells were cultured in ultra-low attachment tissue culture flasks until 1×10^6 cells ml was achieved (GBM4 and GBM8 are distinct neurosphere cell cultures derived from these human patient tissues). GBM4 and GBM8 cells were dissociated and 10 mL of media containing 4000 human glioblastoma cells per 90 uL were transferred to an ultra-low binding 96-well plate and incubated at 37° C. overnight. On the following day, 10 μL of a 1% DMSO solution of test compound in assay medium was added to wells containing the cell suspension and the mixture incubated at 37° C. for 3 days. At this time, the plate was removed from the incubator and allowed to reach room temperature. After about 30 minutes, 50 μL of Cell Titer Glo solution was added to each well and the plate shaken for 1 minute at low speed. After 10 minutes luminescence was recorded using a Tecan Safire2 reader.
Reduction in luminescence compared to DMSO only control wells was used to determine the percentage inhibition of cell growth. IC50s were calculated using the % inhibition of luminescence for serial dilutions of compounds fitted to a 4-parameter fit within the Prism (San Diego) curve fitting program.
(ATP-based viability assays read luminescence as a measure of living cells.)

Molecules are shown by their SMILES.

By IC50 is commonly meant the concentration that inhibits the measured activity by half. A higher IC50 goes with a need for much substance. The molecule `Cc1cc(NCCCN)nc(NC(=O)Nc2cccc(OC(F)(F)F)c2)n1` [Compound 177] had an IC50 of less than 1 µM.

As for `Cc1cc(NCCN(C)C)nc(NC(=O)Nc2ccc(C(C)(C)C)cc2)n1` [Compound 302], the IC50 lay within 1 to 10 µM.

With `Cc1cc(NCC2CCCNC2)nc(NC(=O)Nc2ccc(F)c(C(F)(F)F)c2)n1` (stereo not drawn) [Compound 122], the IC50 is less than 1 µM.

`CC(=O)NCCCNc1cc(C)nc(NC(=O)Nc2ccc(C(C)(C)C)cc2)n1` [Compound 310, N-(3-{2-[3-(4-tert-butyl-phenyl)-ureido]-6-methyl-pyrimidin-4-ylamino}-propyl)-acetamide] came in with a half-inhibitory concentration (IC50) of less than 1 µM.

`Cc1cc(NCC2CCCN(C)C2)nc(NC(=O)Nc2ccc(Cl)c(Cl)c2)n1` (stereo not drawn) [Compound 16]: the IC50 was less than 1 µM.

In the case of `Cc1cc(NCCN)nc(NC(=O)Nc2ccc(F)c(Cl)c2)n1` [Compound 162], the 50% inhibitory concentration (IC50) was less than 1 µM.

For the molecule `CC(=O)NCCCNc1cc(C)nc(NC(=O)Nc2ccc3c(c2)OCCO3)n1` [Compound 308, N-(3-{2-[3-(2,3-dihydro-benzo[1,4]dioxin-6-yl)-ureido]-6-methyl-pyrimidin-4-ylamino}-propyl)-acetamide], the IC50 was less than 1 µM.

In turn, `Cc1cc(NCCCN)nc(NC(=O)Nc2ccc(OC(F)(F)F)cc2)n1` [Compound 89] came in with an IC50 of less than 1 µM.

Consider `COc1cccc(NC(=O)Nc2nc(C)cc(NCCCCN)n2)c1` [Compound 142], for which the concentration for half-maximal inhibition (IC50) is 1 to 10 µM.

Consider `Cc1cc(NCCCN(C)C)nc(NC(=O)Nc2ccc(F)c(Cl)c2)n1` [Compound 157, 1-(3-chloro-4-fluorophenyl)-3-(4-((3-(dimethylamino)propyl)amino)-6-methylpyrimidin-2-yl)urea], for which the half-inhibitory concentration (IC50) was less than 1 µM.

`Cc1cc(NCCOCCO)nc(NC(=O)Nc2ccc(C(F)(F)F)cc2)n1` [Compound 199] had an IC50 of less than 1 µM.

For the molecule `Cc1cccc(NC(=O)Nc2nc(C)cc(NCCCc3cnc[nH]3)n2)c1` [Compound 226], the IC50 is less than 1 µM.

`Cc1cc(NCCN)nc(NC(=O)Nc2ccc(Cl)c(C(F)(F)F)c2)n1` [Compound 55]: the 50% inhibitory concentration (IC50) was less than 1 µM.

In turn, `CCNc1cc(C)nc(NC(=O)Nc2ccc3c(c2)OCO3)n1` [Compound 285] yielded an IC50 of less than 1 µM.

The molecule `COc1cccc(NC(=O)Nc2nc(C)cc(NCCN(C)C)n2)c1` [Compound 145] yielded a half-inhibitory concentration (IC50) of 1 to 10 µM.

Consider `CCCNc1cc(C)nc(NC(=O)Nc2ccc(OC)cc2)n1` [Compound 128], for which the IC50 was less than 1 µM.

`Cc1cc(NCCO)nc(NC(=O)Nc2ccc(C(F)(F)F)cc2)n1` [Compound 201] yielded a half-maximal inhibitory concentration (IC50) of less than 1 µM.

Regarding `Cc1cc(NCC(C)O)nc(NC(=O)Nc2ccc(Cl)c(Cl)c2)n1` (stereo not drawn) [Compound 10, 1-{2-[3-(3,4-Dichlorophenyl)ureido]-6-methyl-4-pyrimidinylamino}-2-propanol], the 50% inhibitory concentration (IC50) is less than 1 µM.

`Cc1cccc(NC(=O)Nc2nc(C)cc(NCC3CCCN(C)C3)n2)c1` (stereo not drawn) [Compound 214] yielded a 50% inhibitory concentration (IC50) of 1 to 10 µM.

On to `Cc1cc(NCCCN(C)C)nc(NC(=O)Nc2ccc(C)c(C)c2)n1` [Compound 251, 1-(4-((3-(dimethylamino)propyl)amino)-6-methylpyrimidin-2-yl)-3-(3,4-dimethylphenyl)urea], for which the half-inhibitory concentration (IC50) is less than 1 µM.

`CNCCNc1cc(C)nc(NC(=O)Nc2ccc(Cl)c(C(F)(F)F)c2)n1` [Compound 63, 1-(4-chloro-3-(trifluoromethyl)phenyl)-3-(4-methyl-6-((2-(methylamino)ethyl)amino)pyrimidin-2-yl)urea] had a 50% inhibitory concentration (IC50) of 1 to 10 µM.

With `Cc1cc(NCCCN)nc(NC(=O)Nc2ccc(F)c(C(F)(F)F)c2)n1` [Compound 111], the half-inhibitory concentration (IC50) was less than 1 µM.

Molecule `Cc1ccc(NC(=O)Nc2nc(C)cc(NCCCCN)n2)cc1` [Compound 241] returned a concentration for half-maximal inhibition (IC50) of less than 1 µM.

Molecule `Cc1cc(NCCN)nc(NC(=O)Nc2ccc(C(C)(C)C)cc2)n1` [Compound 304] yielded an IC50 of less than 1 µM.

Turning to `Cc1cc(NCCO)nc(NC(=O)Nc2ccc(C)c(C)c2)n1` [Compound 259], the half-inhibitory concentration (IC50) was less than 1 µM.

As to `CNCCCCNc1cc(C)nc(NC(=O)Nc2ccc(Cl)c(Cl)c2)n1` [Compound 26, 1-(3,4-dichlorophenyl)-3-(4-methyl-6-((4-(methylamino)butyl)amino)pyrimidin-2-yl)urea], the IC50 is less than 1 µM.

Take `Cc1cc(NCC(F)(F)CO)nc(NC(=O)Nc2ccccc2)n1` [Compound 79]: the IC50 lay in the range of 1 to 10 µM.

`CNCCNc1cc(C)nc(NC(=O)Nc2ccc3c(c2)OCCO3)n1` [Compound 298, 1-(2,3-dihydrobenzo[b][1,4]dioxin-6-yl)-3-(4-methyl-6-((2-(methylamino)ethyl)amino)pyrimidin-2-yl)urea] returned an IC50 of less than 1 µM.

`COc1cccc(NC(=O)Nc2nc(C)cc(NCCCCN(C)C)n2)c1` [Compound 148] displayed an IC50 of 1 to 10 µM.

Regarding `Cc1cc(NCCCO)nc(N2CCN(c3ccc(Cl)c(Cl)c3)C2=O)n1` [Compound 35, 3-(3,4-dichlorophenyl)-1-[4-(3-hydroxypropylamino)-6-methyl-2-pyrimidinyl]-2-imidazolidinone], the IC50 is less than 1 µM.

`Cc1cc(NCCCO)nc(NC(=O)Nc2cccc(Cl)c2)n1` [Compound 43, 3-{2-[3-(m-chlorophenyl)ureido]-6-methyl-4-pyrimidinylamino}-propanol] showed a 50% inhibitory concentration (IC50) of less than 1 µM.

`Cc1cc(NC2CCNC2)nc(NC(=O)Nc2ccc(Cl)c(C(F)(F)F)c2)n1` (stereo not drawn) [Compound 67] returned an IC50 of less than 1 µM.

For the molecule `CNCCCNc1cc(C)nc(NC(=O)Nc2ccc(Cl)c(C(F)(F)F)c2)n1` [Compound 64], the concentration for half-maximal inhibition (IC50) is less than 1 µM.

`Cc1cc(NCCCN(C)C)nc(NC(=O)Nc2cccc(Cl)c2)n1` [Compound 45, 1-{2-[3-(3-Chloro-phenyl)ureido]-6-methyl-4-pyrimidin-ylamino}-3-(dimethyl-amino)propane] came in with a half-inhibitory concentration (IC50) of less than 1 µM.

In turn, `COc1ccc(NC(=O)Nc2nc(C)cc(NCCCN)n2)cc1` [Compound 131] registered a half-inhibitory concentration (IC50) of less than 1 µM.

As for `Cc1cc(NCCCCO)nc(NC(=O)Nc2ccc(Cl)c(C(F)(F)F)c2)n1` [Compound 50], the IC50 is less than 1 µM.

`COC(=O)CCNc1cc(C)nc(NC(=O)Nc2ccc(Cl)c(Cl)c2)n1` [Compound 20] gave an IC50 of less than 1 µM.

`Cc1cc(NCC(C)O)nc(NC(=O)Nc2ccc(F)c(Cl)c2)n1` (stereo not drawn) [Compound 164] gave an IC50 of less than 1 µM.

`Cc1cc(NCCN(C)C)nc(NC(=O)Nc2ccc(C(F)(F)F)cc2)n1` [Compound 203]: the concentration for half-maximal inhibition (IC50) is less than 1 µM.

In turn, `COc1ccc(NC(=O)Nc2nc(C)cc(NCCOCCO)n2)cc1` [Compound 132] gave an IC50 of less than 1 µM.

`Cc1cc(NCC(F)(F)CO)nc(NC(=O)Nc2cccc(C(F)(F)F)c2)n1` [Compound 188] displayed an IC50 of less than 1 µM.

In the case of `COc1ccc(NC(=O)Nc2nc(C)cc(NCCCNC(C)=O)n2)cc1` [Compound 275, N-(3-((2-(3-(4-methoxyphenyl)ureido)-6-methylpyrimidin-4-yl)amino)propyl)acetamide], the half-inhibitory concentration (IC50) is less than 1 µM.

Take `Cc1ccc(NC(=O)Nc2nc(C)cc(NCCCN)n2)cc1` [Compound 236]: the IC50 is less than 1 µM.

Consider `Cc1cc(NCC2CCCNC2)nc(NC(=O)Nc2ccc(C)c(C)c2)n1` (stereo not drawn) [Compound 271], for which the IC50 is less than 1 µM.

As to `Cc1cc(NCC2CCCN(C)C2)nc(NC(=O)Nc2ccc(C(F)(F)F)cc2)n1` (stereo not drawn) [Compound 206], the IC50 fell in the range of 1 to 10 µM.

The molecule `Cc1cc(NCCCCO)nc(NC(=O)Nc2ccc(Cl)c(Cl)c2)n1` [Compound 13] returned a half-maximal inhibitory concentration (IC50) of less than 1 µM.

Molecule `CCCNc1cc(C)nc(NC(=O)Nc2ccc(OC(F)(F)F)cc2)n1` [Compound 91] yielded a half-inhibitory concentration (IC50) of less than 1 µM.

Consider `CC(=O)NCCCNc1cc(C)nc(NC(=O)Nc2ccc(F)c(Cl)c2)n1` [Compound 278], for which the IC50 was less than 1 µM.

As to `Cc1cc(NCC(C)O)nc(NC(=O)Nc2cccc(C(F)(F)F)c2)n1` (stereo not drawn) [Compound 185], the concentration for half-maximal inhibition (IC50) was less than 1 µM.

The molecule `Cc1cc(NCCN(C)C)nc(NC(=O)Nc2ccc(F)c(C(F)(F)F)c2)n1` [Compound 103, 1-(4-fluoro-3-(trifluoromethyl)phenyl)-3-(4-((2-(dimethylamino)ethyl)amino)-6-methylpyrimidin-2-yl)urea] had an IC50 of less than 1 µM.

As to `Cc1cc(NCCO)nc(NC(=O)Nc2ccc(F)c(C(F)(F)F)c2)n1` [Compound 105], the concentration for half-maximal inhibition (IC50) is less than 1 µM.

Molecule `Cc1cc(NCCCN(C)C)nc(NC(=O)Nc2ccc(F)c(C(F)(F)F)c2)n1` [Compound 101, 3-(dimethylamino)-1-(2-{3-[4-fluoro-3-(trifluoromethyl)phenyl]ureido}-6-methyl-4-pyrimidinylamino)propane] showed an IC50 of less than 1 µM.

As for `Cc1cccc(NC(=O)Nc2nc(C)cc(NCCCCN(C)C)n2)c1` [Compound 227], the IC50 is less than 1 µM.

Regarding `Cc1cc(NCCCN(C)C)nc(NC(=O)Nc2ccc(C(C)(C)C)cc2)n1` [Compound 301, 1-(4-(tert-butyl)phenyl)-3-(4-((3-(dimethylamino)propyl)amino)-6-methylpyrimidin-2-yl)urea], the IC50 is less than 1 µM.

With `CCCNc1cc(C)nc(NC(=O)Nc2ccc3c(c2)OCCO3)n1` [Compound 296], the IC50 is less than 1 µM.

`Cc1cc(NCCCN(C)C)nc(NC(=O)Nc2ccccc2)n1` [Compound 69, 1-(4-((3-(dimethylamino)propyl)amino)-6-methylpyrimidin-2-yl)-3-phenylurea] displayed an IC50 of 1 to 10 µM.

The molecule `Cc1cc(NCCCCN(C)C)nc(NC(=O)Nc2ccc(Cl)c(Cl)c2)n1` [Compound 17] registered a 50% inhibitory concentration (IC50) of less than 1 µM.

For the origin of these results see patent US11691951B2 (Curtana Pharmaceuticals, Inc., priority 2015, dated 2023).
